According to ChEMBL document CHEMBL1138420, “Discovery of adamantane ethers as inhibitors of 11beta-HSD-1: Synthesis and biological evaluation” (Bioorg Med Chem Lett, 2007):
pIC50: −log10 of the molar value.

Legend:
[1] = system: Mus musculus; assay: Ex vivo inhibition of 11beta-HSD1 in ob/ob mouse fat at 30 mg/kg, po after 1 hr; type: functional
[2] = system: Mus musculus; assay: Ex vivo inhibition of 11beta-HSD1 in ob/ob mouse fat at 30 mg/kg, po after 16 hrs; type: functional
[3] = system: Mus musculus; assay: Ex vivo inhibition of 11beta-HSD1 in ob/ob mouse liver at 30 mg/kg, po after 7 hrs; type: functional
[4] = Half life in ob/ob mouse at 5 mg/kg, iv or 10 mg/kg, po; type: ADME, organism-based; conditions: in vivo
[5] = Metabolic stability in mouse liver microsome after 30 mins; type: ADME; conditions: liver microsomes, read-out: Stability
[6] = system: Mus musculus; assay: Ex vivo inhibition of 11beta-HSD1 in ob/ob mouse brain at 30 mg/kg, po after 1 hr; type: functional
[7] = biological target: T1, 11-beta-hydroxysteroid dehydrogenase type 2 (Homo sapiens, UniProt P80365); assay: Inhibition of human 11beta-HSD2 by SPA
T1 sequence (P80365 whole entry): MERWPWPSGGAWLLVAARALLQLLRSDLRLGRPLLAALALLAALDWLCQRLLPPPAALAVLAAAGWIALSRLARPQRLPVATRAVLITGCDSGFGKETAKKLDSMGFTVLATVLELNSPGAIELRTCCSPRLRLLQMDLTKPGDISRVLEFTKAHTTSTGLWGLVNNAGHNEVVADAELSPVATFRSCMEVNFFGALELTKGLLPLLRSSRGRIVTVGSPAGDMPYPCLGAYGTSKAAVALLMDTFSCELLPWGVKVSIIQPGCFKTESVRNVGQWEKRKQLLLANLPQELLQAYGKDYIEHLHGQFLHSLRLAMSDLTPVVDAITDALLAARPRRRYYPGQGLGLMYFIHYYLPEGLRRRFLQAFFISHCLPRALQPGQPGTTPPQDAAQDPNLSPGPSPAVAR

[8] = system: Mus musculus; assay: Ex vivo inhibition of 11beta-HSD1 in ob/ob mouse brain at 30 mg/kg, po after 7 hrs; type: functional
[9] = biological target: T2, 11-beta-hydroxysteroid dehydrogenase type 2 (Mus musculus, UniProt P51661); assay: Inhibition of mouse 11beta-HSD2 by SPA
T2 sequence (P51661 whole entry): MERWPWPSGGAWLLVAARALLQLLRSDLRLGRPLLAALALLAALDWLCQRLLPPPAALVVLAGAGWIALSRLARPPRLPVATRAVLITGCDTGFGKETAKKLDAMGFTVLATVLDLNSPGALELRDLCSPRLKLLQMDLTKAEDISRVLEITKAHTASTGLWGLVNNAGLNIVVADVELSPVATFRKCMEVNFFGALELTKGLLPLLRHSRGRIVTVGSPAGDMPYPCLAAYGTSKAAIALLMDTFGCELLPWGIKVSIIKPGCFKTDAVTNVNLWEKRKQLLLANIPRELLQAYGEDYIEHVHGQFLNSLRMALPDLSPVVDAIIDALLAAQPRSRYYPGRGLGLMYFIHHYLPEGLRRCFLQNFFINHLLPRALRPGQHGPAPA

[10] = system: Mus musculus; assay: Ex vivo inhibition of 11beta-HSD1 in ob/ob mouse liver at 30 mg/kg, po after 16 hrs; type: functional
[11] = system: Mus musculus; assay: Ex vivo inhibition of 11beta-HSD1 in ob/ob mouse fat at 30 mg/kg, po after 7 hrs; type: functional
[12] = system: Mus musculus; assay: Ex vivo inhibition of 11beta-HSD1 in ob/ob mouse liver at 30 mg/kg, po after 1 hr; type: functional
[13] = Plasma clearance in ob/ob mouse at 5 mg/kg, iv or 10 mg/kg, po; type: ADME, organism-based
[14] = system: Mus musculus; assay: Ex vivo inhibition of 11beta-HSD1 in ob/ob mouse brain at 30 mg/kg, po after 16 hrs; type: functional
[15] = biological target: T3, 11-beta-hydroxysteroid dehydrogenase 1 (Homo sapiens, UniProt P28845); assay: Inhibition of human 11beta-HSD1 expressed in HEK293 cells by FPIA; type: cell-based
[16] = Bioavailability in ob/ob mouse at 10 mg/kg; type: ADME, organism-based; conditions: in vivo, oral
[17] = biological target: 11-beta-hydroxysteroid dehydrogenase 1 (Mus musculus, UniProt P50172); assay: Inhibition of mouse 11beta-HSD1 by SPA
[18] = biological target: T3, 11-beta-hydroxysteroid dehydrogenase 1; assay: Inhibition of human 11beta-HSD1 by SPA

11-beta-hydroxysteroid dehydrogenase 1 (Mus musculus, UniProt P50172), sequence (P50172 whole entry): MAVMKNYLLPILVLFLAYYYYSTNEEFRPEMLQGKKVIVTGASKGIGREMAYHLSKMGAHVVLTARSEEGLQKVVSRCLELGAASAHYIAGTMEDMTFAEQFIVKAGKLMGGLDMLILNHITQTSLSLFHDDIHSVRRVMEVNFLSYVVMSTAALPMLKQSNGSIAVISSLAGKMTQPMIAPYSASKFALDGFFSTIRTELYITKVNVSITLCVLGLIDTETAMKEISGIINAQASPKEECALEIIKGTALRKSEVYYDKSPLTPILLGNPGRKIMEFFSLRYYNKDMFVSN
T3 sequence (P28845 whole entry): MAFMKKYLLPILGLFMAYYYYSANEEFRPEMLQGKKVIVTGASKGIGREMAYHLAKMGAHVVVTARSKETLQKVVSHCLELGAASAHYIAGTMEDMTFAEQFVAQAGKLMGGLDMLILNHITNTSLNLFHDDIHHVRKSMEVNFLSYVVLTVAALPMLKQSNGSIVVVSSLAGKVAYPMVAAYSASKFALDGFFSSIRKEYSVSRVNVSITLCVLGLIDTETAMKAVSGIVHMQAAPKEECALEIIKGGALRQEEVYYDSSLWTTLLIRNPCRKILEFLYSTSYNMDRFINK

Structure (SMILES)	remaining at 0.5 h [5]	pIC50 [7]	pIC50 [9]	pIC50 [15]	pIC50 [17]	pIC50 [18]	other results
CC(C)(Oc1ccc(Cl)cc1)C(=O)N[C@H]1C2CC3CC1C[C@](C(=O)NCc1ccc(S(N)(=O)=O)cc1)(C3)C2	35%	< 4.52	4.80	6.52	7.62	7.29	inhibition in vivo at 30 mg/kg [1]: 15%; inhibition in vivo at 30 mg/kg [2]: 5%; inhibition in vivo at 30 mg/kg [3]: 55%; half-life [4]: 3.8 h; inhibition in vivo at 30 mg/kg [6]: 0%; inhibition in vivo at 30 mg/kg [8]: 0%; inhibition in vivo at 30 mg/kg [10]: 58%; inhibition in vivo at 30 mg/kg [11]: 18%; inhibition in vivo at 30 mg/kg [12]: 45%; clearance [13]: 15 mL/min/kg; inhibition in vivo at 30 mg/kg [14]: 18%; bioavailability [16]: 44%
CC(C)(Oc1ccc(Cl)cc1)C(=O)N[C@H]1C2CC3CC1C[C@](C(=O)O)(C3)C2	89%	–	–	–	7.15	–	–
CC(C)(Oc1ccc(Cl)cc1)C(=O)N[C@H]1C2CC3CC1C[C@](COCC(=O)O)(C3)C2	100%	< 4.00	4.35	6.17	6.68	6.96	–
COc1ccc(OC(C)(C)C(=O)N[C@H]2C3CC4CC2C[C@](C(N)=O)(C4)C3)cc1	57%	–	–	–	8.40	–	–
CC(C)(Oc1ccc(Cl)cc1)C(=O)N[C@H]1C2CC3CC1C[C@](CO)(C3)C2	19%	–	–	–	8.22	–	–
CC(C)(Oc1ccccc1Cl)C(=O)N[C@H]1C2CC3CC1C[C@](C(=O)NS(C)(=O)=O)(C3)C2	94%	6.24	5.92	6.13	7.55	7.02	–
CC(C)(Oc1cccc(Cl)c1)C(=O)N[C@H]1C2CC3CC1C[C@](C(=O)O)(C3)C2	100%	5.46	6.27	6.72	7.29	7.82	–
CC(C)(Oc1ccc(F)cc1Cl)C(=O)N[C@H]1C2CC3CC1C[C@](c1nnn[nH]1)(C3)C2	87%	–	–	–	8.00	–	–
CC(C)(Oc1ccc(Cl)cc1)C(=O)N[C@H]1C2CC3CC1C[C@](C(=O)NCC(N)=O)(C3)C2	78%	–	–	–	8.40	–	–
CC(C)(Oc1ccc(Cl)cc1)C(=O)N[C@H]1C2CC3CC1C[C@](C(=O)NCc1ccncc1)(C3)C2	16%	5.28	4.72	7.04	7.85	7.60	–
CC(C)(Oc1ccccc1Cl)C(=O)N[C@H]1C2CC3CC1C[C@](C(=O)NS(=O)(=O)c1ccccc1)(C3)C2	–	–	–	–	6.00	6.30	–
CC(C)(Oc1ccccc1)C(=O)N[C@H]1C2CC3CC1C[C@](C(N)=O)(C3)C2	78%	–	–	–	8.40	–	–
CC(C)(Oc1ccccc1Cl)C(=O)N[C@H]1C2CC3CC1C[C@](C(=O)O)(C3)C2	94%	5.74	6.85	7.23	8.10	8.10	inhibition in vivo at 30 mg/kg [1]: 67%; inhibition in vivo at 30 mg/kg [2]: 6%; inhibition in vivo at 30 mg/kg [3]: 76%; half-life [4]: 3.9 h; inhibition in vivo at 30 mg/kg [10]: 35%; inhibition in vivo at 30 mg/kg [11]: 47%; inhibition in vivo at 30 mg/kg [12]: 81%; clearance [13]: 15 mL/min/kg; bioavailability [16]: 100%
CC(C)(Oc1ccc(Cl)cc1)C(=O)N[C@H]1C2CC3CC1C[C@](C(=O)NCc1cncs1)(C3)C2	5%	–	–	–	7.96	–	–
CC(C)(Oc1ccccc1)C(=O)N[C@H]1C2CC3CC1C[C@](C(=O)O)(C3)C2	98%	–	–	–	6.92	–	–
CC(C)(Oc1ccc(Cl)cc1)C(=O)N[C@H]1C2CC3CC1C[C@](C(=O)NCc1ccc(C(=O)NS(C)(=O)=O)cc1)(C3)C2	51%	–	–	–	–	–	–
CNC(=O)NC(=O)[C@]12CC3CC(C1)[C@@H](NC(=O)C(C)(C)Oc1ccc(Cl)cc1)C(C3)C2	–	–	–	–	8.10	–	–
CC(C)(Oc1ccc(Cl)cc1)C(=O)N[C@H]1C2CC3CC1C[C@](C(=O)NCc1ccc(C(=O)O)cc1)(C3)C2	94%	–	–	–	7.92	–	inhibition in vivo at 30 mg/kg [1]: 37%; inhibition in vivo at 30 mg/kg [2]: 36%; inhibition in vivo at 30 mg/kg [3]: 93%; inhibition in vivo at 30 mg/kg [10]: 77%; inhibition in vivo at 30 mg/kg [11]: 38%; inhibition in vivo at 30 mg/kg [12]: 99%
CC(C)(Oc1ccc(Cl)cc1)C(=O)N[C@H]1C2CC3CC1C[C@](C(=O)NCc1ccc(-c4nnn[nH]4)cc1)(C3)C2	51%	–	–	–	7.74	–	–
CC(C)(Oc1ccc(Cl)cc1)C(=O)N[C@H]1C2CC3CC1C[C@](C(N)=O)(C3)C2	43%	–	–	–	8.52	–	half-life [4]: 0.3 h; clearance [13]: 70 mL/min/kg; bioavailability [16]: 20%
